Results: doi:10.1101/2025.06.05.657999, “A secreted fatty acid- and retinol- binding protein from Heligmosomoides polygyrus suppresses host macrophage polarization” (bioRxiv, 2025)

Tests used:
Hp-FAR-2 [1] = biological target: T1, Hp-FAR-2 (Heligmosomoides polygyrus, UniProt A0A183GLK6); test: fluorescence titration, one-site fit; format: binding
T1 construct: mature protein, residues 18-180 of 180 (signal peptide removed), N-terminal 6-His tag, pET histev N'term, E. coli BL21(DE3), Ni-NTA and SEC; ~17-18 kDa on SDS-PAGE

Hp-FAR-2 [2] = biological target: T1, Hp-FAR-2; test: fluorescence titration of retinol, one-site fit; format: binding

T1 sequence (A0A183GLK6 entry or part of it): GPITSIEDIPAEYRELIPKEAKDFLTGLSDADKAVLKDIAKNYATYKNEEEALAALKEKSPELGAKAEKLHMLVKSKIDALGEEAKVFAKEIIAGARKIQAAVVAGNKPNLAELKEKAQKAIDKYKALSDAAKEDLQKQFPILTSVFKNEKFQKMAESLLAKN

SMILES	Kd (Hp-FAR-2 [1])	Kd (Hp-FAR-2 [2])
CN(C)c1cccc2c(S(=O)(=O)NCCCCCCCCCCC(=O)O)cccc12 [DAUDA]	2.65 µM	
CC1=C(/C=C/C(C)=C/C=C/C(C)=C/CO)C(C)(C)CCC1 [retinol]		6.55 µM
